Assay results reported in patent publication US12064479B2, “Lipid nanoparticles for delivery of nucleic acids and methods of use thereof” (Akagera Medicines, Inc., priority 2022, dated 2024).

Experiments:
Format in all cases: physicochemical
[1] = Apparent solubility of phosphatidylserine salts in ethanol (shake flask); details: for Solubility, mM phosphatidylserine: 100% ethanol, room temperature, 24 hours, N=3
Procedure: Apparent solubilities of phosphatidylserine salts in ethanol were determined by shake flask technique. Sodium and ammonium salts of phosphatidylserines in the powder form were obtained from Avanti Polar Lipids (Alabama, USA). Aliquots of phosphatidylserine salt powder were placed in 12×75 borosilicate glass tubes in triplicate. Three mL of 200 proof ethanol (catalog number E-7023, MilliporeSigma, USA) were added, the tubes were closed with polyethylene snap caps, agitated using vortex mixer for 10-15 s to obtain uniform suspensions, and placed in a horizontal position on a rocking platform at room temperature (20-22° C.) overnight. The ambient temperature at the end of incubation was 20.4-20.9° C. After 24 hours incubation, the suspensions were visually checked for the presence of a solid phase, allowed to settle under gravity, and the supernatant solutions were passed through a 0.2-μm PTFE syringe membrane filters. The first 0.5 ml of the filtrate was discarded, the next 1 ml was collected, and phosphatidylserine in the filtrates was quantified by phospholipid phosphate assay as follows: 20 μL aliquots of the filtrate were taken in triplicate into glass tubes, ethanol was evaporated in a stream of argon at 70° C., and the residue was digested in a mixture of 60 μL concentrated sulfuric acid and 20 μL 30% hydrogen peroxide for 10 min at 180-190° C. The digested samples were diluted with 1 mL of deionized water, 20 μL of 10% sodium sulfite was added to destroy any residual peroxide, and the samples were incubated on a boiling water bath for 15 min to hydrolyze any condensed phosphate species. The samples were chilled down to room temperature, mixed with 0.2 mL of 2% (w/w) ammonium molybdate solution and 20 μL of 10% (w/w) ascorbic acid solution, incubated on a boiling water bath for 10 min, and chilled down in a water bath at room temperature. The phosphate concentration was determined from the optical density of the formed blue phosphomolybdic acid at 825 nm using five-point standard curve from concurrently run standards prepared from the NIST-traceable commercial phosphate standard solution diluted to cover the range of 0-2 mM phosphate (coefficient of determination R^2>0.9999). Solubility of phosphatidylserine salts was expressed in molarity units of phosphatidylserine (Table 40). The data are average f SD (N=3).

[2] = Stability of ionizable cationic lipids under accelerated oxidation (H2O2/Fe(III)Cl, UHPLC-CAD), Example 29; details: for % of main lipid peak to To, 24 h.: individual lipids 0.5 mM; for % of main lipid peak to To, 24 h. / % of main lipid peak to To, 48 h. / % of main lipid peak to To, 72 h.: 1% H2O2/100 μM Fe(III)Cl, 37° C.; for % of main lipid peak to To, 48 h. / % of main lipid peak to To, 72 h.: individual lipids
Procedure: Ethanol (Sigma-Aldrich, cat #459836) stocks of 1 mM cationic lipids (KC3, KC3-OA, KC3-PA, KC3-C17 and KC3-C17(C8:1)) were prepared and stored at −20° C. Prior to the experiment, 75 μl of a lipid stock was mixed with 75 μl of ultra-pure water (Rx Biosciences, cat #P01-UPW02-1000) to make 0.5 mM of cationic lipids and 5 mM of linoleic acid respectively. A combined stock in water of 10% H2O2 (Sigma-Aldrich, cat #H1009) and 1 mM of Fe(III)Cl (Sigma-Aldrich, cat #372870) was freshly by prepared prior to the experiment. To make 1% final concentration of H2O2 and 100 μM Fe(III)Cl, 15 μl of 10% H2O2/1 mM Fe(III)Cl stock was added to 135 μl of individual lipids The liposomes and individual lipids were incubated with H2O2/Fe(III)Cl at 37° C. and then 5 μl from each sample was taken at different time points (0, 24, 48, 72 and 96 hours) and dissolved in 90 μl of MeOH for HPLC analysis. Degradation of the main lipid peak was analyzed using Thermo Scientific Vanquish Flex UHPLC occupied with Charged Aerosol Detector (CAD) and Phenomenex™ Kinetex C8 column (L=150 mm, D=2.1 mm, Particle Size=1.7 μm, 100 A).
The data are presented as a percentage of the main lipid peak measured at different time points relative to the lipid peak measured at time zero.

[3] = Oxidative stability of ICLs and liposomes under accelerated oxidation (H2O2/Fe(III)Cl, UHPLC-CAD), Example 18; details: ICL lipid suspensions, 1% H2O2/100 μM Fe(III)Cl, 37° C.
Procedure: Individual lipid stocks (10 mM) were prepared in ethanol and stored at −20° C. […] Liposomal formulations based on AKG-UO-1 and O-11769 ionizable cationic lipids (Table 12) were prepared by combining lipid mixtures of desired composition in 1 mL ethanol with 3 mL 6.25 mM sodium acetate, pH 5.0 at 6 mL/min on a NanoAssemblr (Precision Nanosystems). 3.6 mL of the mixture was retained, while the initial 0.35 mL of the mixture and final 0.05 mL were discarded. Ethanol was removed by buffer exchange into PBS, pH 7.4 by concentrating each liposome preparation using an Aminon-Ultra 4 centrifugal concentrator at 500 g for 10 min at 4° C. and diluting back to the original volume with PBS. This cycle was repeated multiple times until the ethanol concentration was <1%. Finally, liposomes were sterile filtered through 0.2 μm PES (Nalgene) syringe filters and size measured by a ZetaSizer (Malvern).
Aliquots of the liposomal formulations were stored at −80° C. and thawed before the experiment. A combined stock in water of 10% H2O2 (Sigma-Aldrich, cat #H1009) and 1 mM of Fe(III)Cl (Sigma-Aldrich, cat #372870) was freshly prepared prior to the treatment. To make 1% final concentration of H2O2 and 100 μM Fe(III)Cl, 10 μl of 10% H2O2/1 mM Fe(III)Cl stock was added to 90 μl of both liposomal formulations and individual lipids The liposomes and individual lipids were incubated with H2O2/Fe(III)Cl at 37° C. and then 5 μl from each sample was taken at different time points (0, 3, 24, 48 and 72 hours) and dissolved in 90 μl of MeOH for HPLC analysis. Degradation of the main lipid peak was analyzed using Thermo Scientific Vanquish Flex UHPLC occupied with Charged Aerosol Detector (CAD) and Thermo Scientific Accucore™ C18+ UHPLC column (L=50 mm, D=2.1 mm, Particle Size=1.5 μm).
The data are presented as a percentage of the main lipid pea measure at different time points relative to the lipid peak measured at time zero.

| SMILES | Solubility, mM phosphatidylserine [1] [mM] | % of main lipid peak to To, 24 h. [2] [%] | % of main lipid peak to To, 48 h. [2] [%] | % of main lipid peak to To, 72 h. [2] [%] | also measured |
| --- | --- | --- | --- | --- | --- |
| CCCCCCCCCCCCCCCC(=O)OC[C@H](COP(=O)(O)OC[C@H](N)C(=O)O)OC(=O)CCCCCCCCCCCCCCC.N [DPPS ammonium] | 0.865 ± 0.060 |  |  |  | ethanol solubility ([1]; vs DSPS ammonium and the sodium salts): several-fold higher ethanol solubility |
| CCCCCCCCCCCCCCCC(=O)OC[C@H](COP(=O)(O)OC[C@H](N)C(=O)[O-])OC(=O)CCCCCCCCCCCCCCC.[Na+] [DPPS sodium] | 0.201 ± 0.004 |  |  |  |  |
| CCCCCCCCCCCCCCCCCC(=O)OC[C@H](COP(=O)(O)OC[C@H](N)C(=O)O)OC(=O)CCCCCCCCCCCCCCCCC.N [DSPS ammonium] | 0.034 ± 0.004 |  |  |  |  |
| CCCCCCCCCCCCCCCCCC(=O)OC[C@H](COP(=O)(O)OC[C@H](N)C(=O)[O-])OC(=O)CCCCCCCCCCCCCCCCC.[Na+] [DSPS sodium] | 0.111 ± 0.009 |  |  |  |  |
| CCCCC/C=C\C/C=C\CCCCCCCCC1(CCCCCCCC/C=C\C/C=C\CCCCC)OCC(CCCN(C)C)O1 (stereo not drawn) [KC3, reference compound] |  | 11.2 ± 1.0 | 10.5 ± 0.5 | 0 ± 0 | degradation under forced oxidation with H2O2 ([2]; relative to other cationic lipids, FIG. 18): fastest degradation |
| CCCCCCCC/C=C\CCCCCCCC1(CCCCCCC/C=C\CCCCCCCC)OC[C@H](CCCN(C)C)O1 [KC3-17 (C8:1), 3-((S)-2,2-di((Z)-heptadec-8-en-1-yl)-1,3-dioxolan-4-yl)-N,N-dimethylpropan-1-amine] |  | 66.1 ± 0.6 | 58.4 ± 1.5 | 45.9 ± 4.7 |  |
| CCCCCCCCCCCCCCCCCC1(CCCCCCCCCCCCCCCCC)OC[C@H](CCCN(C)C)O1 [KC3-17, (S)-3-(2,2-diheptadecyl-1,3-dioxolan-4-yl)-N,N-dimethylpropan-1-amine] |  | 92.9 ± 0.3 | 91.8 ± 1.2 | 90.2 ± 1.2 |  |
| CCCCCCCC/C=C\CCCCCCCCC1(CCCCCCCC/C=C\CCCCCCCC)OC[C@H](CCCN(C)C)O1 [KC3-OA, 3-((S)-2,2-di((Z)-octadec-9-en-1-yl)-1,3-dioxolan-4-yl)-N,N-dimethylpropan-1-amine] |  | 88.9 ± 0.5 | 84.6 ± 0.9 | 79.0 ± 0.1 |  |
| CCCCCC/C=C\CCCCCCCCC1(CCCCCCCC/C=C\CCCCCC)OC[C@H](CCCN(C)C)O1 [KC3-PA, 3-((S)-2,2-di((Z)-hexadec-9-en-1-yl)-1,3-dioxolan-4-yl)-N,N-dimethylpropan-1-amine] |  | 62.7 ± 0.1 | 59.2 ± 0.8 | 60.2 ± 0.6 |  |
| CCCCC/C=C\CCCC/C=C\CCCCC(=O)OC[C@H](CCN(C)CCO)OC(=O)CCCC/C=C\CCCC/C=C\CCCCC [UO-6] |  |  |  |  | % of parent lipid peak at time 0, 24 h [3]: 58 ± 0.8%; % of parent lipid peak at time 0, 48 h [3]: 32 ± 1.3%; % of parent lipid peak at time 0, 72 h [3]: 22 ± 1.8% |
| CCCCC/C=C\CCCC/C=C\CCCCC(=O)OC[C@H](CCCN(C)C)OC(=O)CCCC/C=C\CCCC/C=C\CCCCC [UO-7] |  |  |  |  | % of parent lipid peak at time 0, 24 h [3]: 80 ± 1.7%; % of parent lipid peak at time 0, 48 h [3]: 71 ± 0.8%; % of parent lipid peak at time 0, 72 h [3]: 62 ± 1.0% |
